The test system of data set [1] is tumor derived from Colon26 cells, mouse colon cancer model [Colon26細胞由来の腫瘍, マウス結腸癌モデル]. Put plainly: Tumor growth inhibition in mouse colon cancer model (Colon26, BALB/c). In kind it is in vivo. The following applies: 50 mg/kg i.v., sodium salt.
The nature of data set [2]: Body weight and organ damage in mouse colon cancer model. It counts as in vivo. The conditions noted are these: end of test, 50 mg/kg i.v.; sodium salt.

Regarding `Nc1nn(-c2cncc(-n3ccc(CC(=O)O)c3)n2)c2cc(Cl)ccc12` [参考例6, 2-{1-[6-(3-アミノ-6-クロロ-1H-インダゾリル)ピラジン-2-イル]ピロール-3-イル}酢酸], the estimated tumor volume result in data set [1] (from day 5 after start of dosing, compared with control group (Fig. 1)) was “対照群に比較して小さくなった”. The tumor growth rate in data set [1] (day 7 after start of dosing, n=10, relative to estimated tumor volume on day 1, control 1068±197%, P=0.02 (Fig. 2)) was 493±81%. For the same compound, the tumor weight in data set [1] (day 15 after start of dosing, n=10, control 2.11±0.25 g, P=0.20) is 1.57 ± 0.31 g. For the same compound, the “reduction of tumor weight” value in data set [1] (day 15 after start of dosing, vs control group, P=0.20) was 25%. Besides, in data set [2], the “body weight difference from control group” value is “体重の差はなく” and the organ damage entry is on record as “各臓器の障害は何ら認められなかった”.

The values above are taken from patent publication JP2008179567A, “ピラジン誘導体を有効成分とする抗がん剤” (Toray Industries Inc, priority 2007, dated 2008).
